Test results reported in the supplement of paper PMC10307832.

What was measured:
Assay in all cases: relative viability (nuclei count vs DMSO), 5 days (fraction); higher = more cells survive
RAF265 + Lapatinib = compound: Cn1c(Nc2ccc(C(F)(F)F)cc2)nc2cc(Oc3ccnc(-c4ncc(C(F)(F)F)[nH]4)c3)ccc21 [RAF265] + CS(=O)(=O)CCNCc1ccc(-c2ccc3ncnc(Nc4ccc(OCc5cccc(F)c5)c(Cl)c4)c3c2)o1 [Lapatinib] (partner 2 µM)
How it was run: (§1)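 Five library-drug doses in √10 steps were combined with a fixed anchor-drug dose, or a single drug was given alone, by pin tool to lung cancer cell lines in 1536-well plates the day after seeding. Nuclei were stained and counted after 5 days. Relative viability is the nuclei count in treated wells over that in vehicle wells, taken as the median of duplicate plates.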

RAF265 + Luminespib = compound: Cn1c(Nc2ccc(C(F)(F)F)cc2)nc2cc(Oc3ccnc(-c4ncc(C(F)(F)F)[nH]4)c3)ccc21 [RAF265] + CCNC(=O)c1noc(-c2cc(C(C)C)c(O)cc2O)c1-c1ccc(CN2CCOCC2)cc1 [Luminespib] (partner 0.01 µM)
How it was run: as §1

Doramapimod + Pictilisib = compound: Cc1ccc(-n2nc(C(C)(C)C)cc2NC(=O)Nc2ccc(OCCN3CCOCC3)c3ccccc23)cc1 [Doramapimod] + CS(=O)(=O)N1CCN(Cc2cc3nc(-c4cccc5[nH]ncc45)nc(N4CCOCC4)c3s2)CC1 [Pictilisib] (partner 1 µM)
How it was run: as §1

IPA-3 + Dasatinib = compound: C1=CC=C2C(=C1)C=CC(=C2SSC3=C(C=CC4=CC=CC=C43)O)O [IPA-3] + Cc1nc(Nc2ncc(C(=O)Nc3c(C)cccc3Cl)s2)cc(N2CCN(CCO)CC2)n1 [Dasatinib] (partner 0.075 µM)
How it was run: as §1

Cell Line	relative viability (RAF265 + Lapatinib; first compound 0.01 µM)	relative viability (RAF265 + Lapatinib; first compound 0.03162 µM)	relative viability (RAF265 + Lapatinib; first compound 0.1 µM)	relative viability (RAF265 + Lapatinib; first compound 0.3162 µM)	relative viability (RAF265 + Lapatinib; first compound 1 µM)	relative viability (RAF265 + Luminespib; first compound 0.01 µM)	relative viability (RAF265 + Luminespib; first compound 0.03162 µM)	relative viability (RAF265 + Luminespib; first compound 0.1 µM)	relative viability (RAF265 + Luminespib; first compound 0.3162 µM)	relative viability (RAF265 + Luminespib; first compound 1 µM)	relative viability (Doramapimod + Pictilisib; first compound 0.02 µM)	relative viability (Doramapimod + Pictilisib; first compound 0.06325 µM)	relative viability (Doramapimod + Pictilisib; first compound 0.2 µM)	relative viability (Doramapimod + Pictilisib; first compound 0.6325 µM)	relative viability (Doramapimod + Pictilisib; first compound 2 µM)	relative viability (IPA-3 + Dasatinib; first compound 0.2 µM)	relative viability (IPA-3 + Dasatinib; first compound 0.6325 µM)	relative viability (IPA-3 + Dasatinib; first compound 2 µM)	relative viability (IPA-3 + Dasatinib; first compound 6.325 µM)	relative viability (IPA-3 + Dasatinib; first compound 20 µM)
HCC-15	0.832	0.893	0.847	0.657	0.638	0.27	0.229	0.388	0.159	0.173	0.728	0.684	0.8	0.359	0.689	0.682	0.605	0.548	0.596	0.471
H3255	0.254	0.248	0.26		0.17	0.767	0.876	0.953		0.634	0.485	0.495	0.466	0.545	0.414	0.387	0.249	0.428	0.335	0.284
NCI-H1792	0.928	0.843	0.946	0.913	0.593	0.46	0.528	0.379	0.317	0.148	0.271	0.234	0.222	0.254	0.211	1.01	0.81	0.807	0.895	1.03
NCI-H1563	1.01	0.885	0.992	0.815	0.737	0.56	0.511	0.589	0.529	0.485	0.677	0.633	0.634	0.724	0.645	0.418	0.506	0.447	0.537	0.442
NCI-H596	1.09	1.09	1.11	0.897	0.743	1.11	1.06	0.962	1.01	0.625	0.417	0.381	0.407	0.429	0.355	0.635	0.573	0.765	0.69	0.752
NCI-H2087	0.964	0.874	0.837	0.833	0.684	0.136	0.209	0.214	0.162	0.16	0.754	0.795	0.83	0.764	0.847	1.16	0.663	0.865	0.822	0.777
NCI-H661	0.539	0.466	0.532	0.442	0.308	0.973	0.694	0.658	0.486	0.412	0.483	0.405	0.381	0.452	0.377	1.06	0.871	0.656	0.867	0.787
EMC-BAC-2	0.908	0.856	0.857	0.993	0.449	1.2	0.998	1.01	0.819	0.357	0.542	0.468	0.51	0.741	0.513	0.309	0.458	0.302	0.311	0.292
NCI-H1355	1.07	0.969	0.842	0.85	0.596	0.705	0.726	0.747	0.411	0.246	0.438	0.356	0.386	0.366	0.332	0.774	0.719	0.714	0.695	0.594
NCI-H23	1.2	0.87	0.75	0.545	0.409	0.22	0.225	0.221	0.212	0.221	0.435	0.438	0.374	0.509	0.484	0.598	0.795	0.861	0.724	0.617
NCI-H1651	0.931	0.797	0.864	0.669	0.644	1	0.812	0.971	0.807	0.714	0.605	0.478	0.551	0.695	0.519	0.652	0.304	0.486	0.574	0.458
NCI-H1975	0.809	0.791	0.618	0.469	0.412	0.244	0.272	0.199	0.197	0.12	0.324	0.32	0.315	0.373	0.294	0.466	0.368	0.337	0.334	0.299
COR-L23	1.02	0.982	1.02	0.748	0.62	0.637	0.655	0.539	0.33	0.324	0.812	0.791	0.796	0.797	0.751	0.679	0.506	0.503	0.46	0.125
LOU-NH91	0.763	0.719	0.664	0.808	0.572	0.349	0.323	0.373	0.349	0.328	0.582	0.524	0.493	0.524	0.406	0.628	0.568	0.573	0.542	0.697
NCI-H647	1.19	0.937	0.828	0.711	0.809	0.256	0.103	0.171	0.153	0.0987	0.434	0.509	0.428	0.664	0.406	0.271	0.175	0.192	0.115	0.0437
NCI-H1915	0.968	0.92	0.909	0.715	0.371	0.819	0.728	0.616	0.258	0.188	0.945	0.932	0.989	0.87	0.785	0.317	0.297	0.312	0.316	0.334

Cell Line	relative viability (RAF265 + Lapatinib; first compound 0.01 µM)	relative viability (RAF265 + Lapatinib; first compound 0.03162 µM)	relative viability (RAF265 + Lapatinib; first compound 0.1 µM)	relative viability (RAF265 + Lapatinib; first compound 0.3162 µM)	relative viability (RAF265 + Lapatinib; first compound 1 µM)	relative viability (RAF265 + Luminespib; first compound 0.01 µM)	relative viability (RAF265 + Luminespib; first compound 0.03162 µM)	relative viability (RAF265 + Luminespib; first compound 0.1 µM)	relative viability (RAF265 + Luminespib; first compound 0.3162 µM)	relative viability (RAF265 + Luminespib; first compound 1 µM)	relative viability (Doramapimod + Pictilisib; first compound 0.02 µM)	relative viability (Doramapimod + Pictilisib; first compound 0.06325 µM)	relative viability (Doramapimod + Pictilisib; first compound 0.2 µM)	relative viability (Doramapimod + Pictilisib; first compound 0.6325 µM)	relative viability (Doramapimod + Pictilisib; first compound 2 µM)	relative viability (IPA-3 + Dasatinib; first compound 0.2 µM)	relative viability (IPA-3 + Dasatinib; first compound 0.6325 µM)	relative viability (IPA-3 + Dasatinib; first compound 2 µM)	relative viability (IPA-3 + Dasatinib; first compound 6.325 µM)	relative viability (IPA-3 + Dasatinib; first compound 20 µM)
NCI-H1734	1.08	0.854	0.866	0.806	0.485	0.227	0.189	0.178	0.17	0.17	0.418	0.356	0.352	0.466	0.325	0.564	0.486	0.459	0.507	0.444
NCI-H1993	0.789	0.833	0.995	0.908	0.967	0.852	0.75	0.9	1.42	0.774	0.85	0.97	0.825	0.728	0.906	0.567	1.77	0.63	0.364	0.585
LK-2	0.879	0.875	1.06	1.03	0.632	0.172	0.227	0.196	0.236	0.191	0.538	0.545	0.464	0.368	0.349	0.261	0.27	0.222	0.28	0.282
NCI-H2405	1.09	1.08	0.924	0.999	0.607	0.638	0.812	0.722	0.476	0.548	0.435	0.424	0.401	0.68	0.356	0.221	0.204	0.204	0.163	0.211
HOP-62	1.12		0.934	1.05	0.792	0.988	0.879	0.93	0.774	0.688	0.761	0.714	0.742	0.463	0.438	0.807	0.577	0.71	0.589	0.67
NCI-H650	0.959	0.849	0.922	0.602	0.328	0.803	0.785	0.834	0.497	0.339	0.887	0.818	0.984	0.982	0.859	0.461	0.498	0.439	0.438	0.44
NCI-H358	0.491	0.524	0.336	0.434	0.341	0.28	0.21	0.231	0.166	0.126	0.388	0.329	0.373	0.373	0.321	0.219	0.145	0.186	0.213	0.158
BEN	0.726	0.76	0.945	0.831	0.557	0.402	0.491	0.534	0.224	0.325	0.578	0.501	0.524	0.559	0.531	0.471	0.35	0.323	0.342	0.283
SW 1573	1.15	1.18	1.18	1.04	0.824	0.571	0.179	0.161	0.131	0.149	0.448	0.375	0.408	0.423	0.379	0.689	0.395	0.589	0.452	0.151
SK-MES-1	0.468	0.449	0.366	0.349	0.269	0.726	0.414	0.33	0.228	0.191	0.405	0.282	0.304	0.291	0.269	0.339	0.329	0.47	0.333	0.44
NCI-H1755	1.06	1.06	1.03	0.974	0.622	0.627	0.45	0.351	0.262	0.398	0.364	0.382	0.455	0.447	0.393	0.512	0.44	0.371	0.426	0.472
NCI-H2023	0.905	0.77	1.13	0.579	0.727	0.802	0.78	0.674	0.837	0.454	0.25	0.195	0.195	0.152	0.213	0.816	0.513	0.68	0.493	0.679
LC-2-ad	0.906	1.03	0.813	0.654	0.208	1.31	1.05	1.14	0.692	0.672	0.303	0.429	0.605	0.537	0.267	0.616	0.537	0.662	0.611	0.615
NCI-H1666	1.06	0.629	0.856	0.791	0.53	1.11	1.01	1.1	1.05	0.977	0.502	0.397	0.37	0.369	0.312	0.908	0.825	0.871	0.836	0.855
201T	1.02	1.04	1.04	1.06	1.04	1.07	0.972	1.03	0.995	0.997	0.696	0.662	0.668	0.863	0.609	0.576	0.57	0.604	0.616	0.65
NCI-H2009	1.01	0.941	0.85	0.885	0.691	1.05	0.95	0.975	1.03	0.883	0.812	0.656	0.826	0.395	0.823	0.346	0.307	0.287	0.295	0.19
